Measurements from patent US9695155B2, “Herbicidal substituted pyrimidinyloxy benzene compounds” (E. I. DU PONT DE NEMOURS AND COMPANY, priority 2013, dated 2017).

Columns and labels:
wheat [1] = test: Test A preemergence; type: in vivo, Triticum aestivum; conditions: for Wheat plant response rating: 500 g ai/ha
Summary of the method: (§1)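 Injury scores run from 0, no effect, to 100, complete control, judged by eye against untreated plants roughly 10 days after treatment. Chemicals carried a surfactant in a non-phytotoxic solvent and went onto loam–sand soil preemergence or onto one- to two-leaf seedlings postemergence.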

morningglory [2] = test: Test A preemergence; type: in vivo, Ipomoea spp.; conditions: for Morningglory plant response rating: 500 g ai/ha
Summary of the method: as §1

wheat [3] = test: Test A postemergence; type: in vivo, Triticum aestivum
Summary of the method: as §1

rice = test: Test B flooded paddy test; type: in vivo, Oryza sativa; conditions: Flood, 250 g ai/ha; 0 to 100 scale where 0 is no effect and 100 is complete control
Summary of the method: (§2)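 Evaluation is visual, against untreated controls, 13 to 15 days after treatment. Before treatment, plants reached the 2-leaf stage; pots were then flooded 3 cm deep, compound was added to the water, and that level was maintained. Ratings run 0 to 100, with 100 meaning complete control.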

barnyardgrass [4] = test: Test B flooded paddy test; type: in vivo, Echinochloa crus-galli; conditions: Flood, 250 g ai/ha; 0 to 100 scale where 0 is no effect and 100 is complete control
Summary of the method: as §2

pigweed [5] = test: Test A postemergence; type: in vivo, Amaranthus retroflexus
Summary of the method: as §1

corn [6] = test: Test A postemergence; type: in vivo, Zea mays
Summary of the method: as §1

giant foxtail [7] = test: Test A preemergence; type: in vivo, Setaria faberii; conditions: for Foxtail, Giant plant response rating (0 to 100 scale) / Plant response rating, Foxtail, Giant: 125 g ai/ha; for Foxtail, Giant plant response rating: 500 g ai/ha
Summary of the method: as §1

barnyardgrass [8] = test: Test A preemergence; type: in vivo, Echinochloa crus-galli; conditions: for Barnyardgrass plant response rating (0 to 100 scale, 0 is no effect, 100 is complete control) / Plant response rating, Barnyardgrass: 125 g ai/ha; for Barnyardgrass plant response rating: 500 g ai/ha
Summary of the method: as §1

velvetleaf [9] = test: Test A postemergence; type: in vivo, Abutilon theophrasti
Summary of the method: as §1

pigweed [10] = test: Test A preemergence; type: in vivo, Amaranthus retroflexus; conditions: for Pigweed plant response rating: 500 g ai/ha
Summary of the method: as §1

Heteranthera limosa = test: Test B flooded paddy test; type: in vivo; conditions: Flood, 250 g ai/ha; 0 to 100 scale where 0 is no effect and 100 is complete control
Summary of the method: as §2

velvetleaf [11] = test: Test A preemergence; type: in vivo, Abutilon theophrasti; conditions: for Velvetleaf plant response rating: 500 g ai/ha
Summary of the method: as §1

barnyardgrass [12] = test: Test A postemergence; type: in vivo, Echinochloa crus-galli
Summary of the method: as §1

giant foxtail [13] = test: Test A postemergence; type: in vivo, Setaria faberii
Summary of the method: as §1

sedge, umbrella = test: Test B flooded paddy test; type: in vivo, Cyperus difformis; conditions: Flood, 250 g ai/ha; 0 to 100 scale where 0 is no effect and 100 is complete control
Summary of the method: as §2

large (Lg) crabgrass [14] = test: Test A postemergence; type: in vivo, Digitaria sanguinalis
Summary of the method: as §1

morningglory [15] = test: Test A postemergence; type: in vivo, Ipomoea spp.
Summary of the method: as §1

large (Lg) crabgrass [16] = test: Test A preemergence; type: in vivo, Digitaria sanguinalis; conditions: for Crabgrass, Large plant response rating (0 to 100 scale) / Plant response rating, Crabgrass, Large: 125 g ai/ha; for Crabgrass, Large plant response rating: 500 g ai/ha
Summary of the method: as §1

corn [17] = test: Test A preemergence; type: in vivo, Zea mays; conditions: for Corn plant response rating (0 to 100 scale) / Plant response rating, Corn: 125 g ai/ha; for Corn plant response rating: 500 g ai/ha
Summary of the method: as §1

[18] = 0 to 100 scale where 0 is no effect and 100 is complete control
[19] = 125 g ai/ha, 0 to 100 scale where 0 is no effect and 100 is complete control
[20] = 500 g ai/ha, 0 to 100 scale where 0 is no effect and 100 is complete control
[21] = 0 to 100 scale, 0 no effect, 100 complete control, approx. 10 days
[22] = 500 g ai/ha, 0 to 100 scale, 0 no effect, 100 complete control

## CC#Cc1cnn(-c2ccccc2Oc2ncc(Cl)cn2)c1 [Compound 189]
Wheat [1]; 125 g ai/ha
  Wheat plant response rating (0 to 100 scale): 0
Wheat [1]; [18]
  Wheat plant response rating: 10
Morningglory [2]; 125 g ai/ha
  Morningglory plant response rating (0 to 100 scale): 0
Morningglory [2]; [18]
  Morningglory plant response rating: 30
Wheat [3]; [19]
  Wheat plant response rating: 20
Wheat [3]; [20]
  Plant response rating, Wheat: 50
rice
  Plant response rating, Rice: 0
Barnyardgrass [4]
  Plant response rating, Barnyardgrass: 0
Pigweed [5]; [19]
  Pigweed plant response rating: 100
Pigweed [5]; [20]
  Plant response rating, Pigweed: 100
Corn [6]; [19]
  Corn plant response rating: 10
Corn [6]; [20]
  Plant response rating, Corn: 40
Giant foxtail [7]
  Foxtail, Giant plant response rating (0 to 100 scale): 70
Giant foxtail [7]; [18]
  Foxtail, Giant plant response rating: 100
Barnyardgrass [8]
  Barnyardgrass plant response rating (0 to 100 scale, 0 is no effect, 100 is complete control): 20
Barnyardgrass [8]; [18]
  Barnyardgrass plant response rating: 90
Velvetleaf [9]; [19]
  Velvetleaf plant response rating: 90
Velvetleaf [9]; [20]
  Plant response rating, Velvetleaf: 100
Pigweed [10]; 125 g ai/ha
  Pigweed plant response rating (0 to 100 scale): 100
Pigweed [10]; [18]
  Pigweed plant response rating: 100
Heteranthera limosa
  Plant response rating, Ducksalad: 70
Velvetleaf [11]; 125 g ai/ha
  Velvetleaf plant response rating (0 to 100 scale): 60
Velvetleaf [11]; [18]
  Velvetleaf plant response rating: 80
Barnyardgrass [12]; [19]
  Barnyardgrass plant response rating: 10
Barnyardgrass [12]; [20]
  Plant response rating, Barnyardgrass: 90
Giant foxtail [13]; [19]
  Foxtail, Giant plant response rating: 40
Giant foxtail [13]; [20]
  Plant response rating, Foxtail, Giant: 80
sedge, umbrella
  Plant response rating, Sedge, Umbrella: 70
Large (Lg) crabgrass [14]; [19]
  Crabgrass, Large plant response rating: 30
Large (Lg) crabgrass [14]; [20]
  Plant response rating, Crabgrass, Large: 80
Morningglory [15]; [19]
  Morningglory plant response rating: 50
Morningglory [15]; [20]
  Plant response rating, Morningglory: 100
Large (Lg) crabgrass [16]
  Crabgrass, Large plant response rating (0 to 100 scale): 90
Large (Lg) crabgrass [16]; [18]
  Crabgrass, Large plant response rating: 100
Corn [17]
  Corn plant response rating (0 to 100 scale): 0
Corn [17]; [18]
  Corn plant response rating: 0

## Clc1cnc(Oc2cccc(Cl)c2-n2cc(Br)cn2)nc1 [Compound 219]
Wheat [1]; 125 g ai/ha
  Wheat plant response rating (0 to 100 scale): 0
Wheat [1]; [18]
  Wheat plant response rating: 0
Morningglory [2]; 125 g ai/ha
  Morningglory plant response rating (0 to 100 scale): 0
Morningglory [2]; [18]
  Morningglory plant response rating: 10
Wheat [3]; [19]
  Wheat plant response rating: 0
Wheat [3]; [20]
  Plant response rating, Wheat: 70
rice
  Plant response rating, Rice: 0
Barnyardgrass [4]
  Plant response rating, Barnyardgrass: 0
Pigweed [5]; [19]
  Pigweed plant response rating: 100
Pigweed [5]; [20]
  Plant response rating, Pigweed: 100
Corn [6]; [19]
  Corn plant response rating: 20
Corn [6]; [20]
  Plant response rating, Corn: 70
Giant foxtail [7]
  Foxtail, Giant plant response rating (0 to 100 scale): 100
Giant foxtail [7]; [18]
  Foxtail, Giant plant response rating: 100
Barnyardgrass [8]
  Barnyardgrass plant response rating (0 to 100 scale, 0 is no effect, 100 is complete control): 30
Barnyardgrass [8]; [18]
  Barnyardgrass plant response rating: 90
Velvetleaf [9]; [19]
  Velvetleaf plant response rating: 100
Velvetleaf [9]; [20]
  Plant response rating, Velvetleaf: 100
Pigweed [10]; 125 g ai/ha
  Pigweed plant response rating (0 to 100 scale): 100
Pigweed [10]; [18]
  Pigweed plant response rating: 100
Heteranthera limosa
  Plant response rating, Ducksalad: 100
Velvetleaf [11]; 125 g ai/ha
  Velvetleaf plant response rating (0 to 100 scale): 10
Velvetleaf [11]; [18]
  Velvetleaf plant response rating: 20
Barnyardgrass [12]; [19]
  Barnyardgrass plant response rating: 50
Barnyardgrass [12]; [20]
  Plant response rating, Barnyardgrass: 100
Giant foxtail [13]; [19]
  Foxtail, Giant plant response rating: 70
Giant foxtail [13]; [20]
  Plant response rating, Foxtail, Giant: 90
sedge, umbrella
  Plant response rating, Sedge, Umbrella: 85
Large (Lg) crabgrass [14]; [19]
  Crabgrass, Large plant response rating: 90
Large (Lg) crabgrass [14]; [20]
  Plant response rating, Crabgrass, Large: 100
Morningglory [15]; [19]
  Morningglory plant response rating: 70
Morningglory [15]; [20]
  Plant response rating, Morningglory: 100
Large (Lg) crabgrass [16]
  Crabgrass, Large plant response rating (0 to 100 scale): 100
Large (Lg) crabgrass [16]; [18]
  Crabgrass, Large plant response rating: 100
Corn [17]
  Corn plant response rating (0 to 100 scale): 0
Corn [17]; [18]
  Corn plant response rating: 10

## FC(F)(F)c1cnn(-c2c(Cl)cccc2Oc2ncc(Br)cn2)c1 [Compound 168]
Wheat [1]; 125 g ai/ha
  Wheat plant response rating (0 to 100 scale): 20
Wheat [1]; [18]
  Wheat plant response rating: 20
Morningglory [2]; 125 g ai/ha
  Morningglory plant response rating (0 to 100 scale): 20
Morningglory [2]; [18]
  Morningglory plant response rating: 80
Wheat [3]; [19]
  Wheat plant response rating: 10
Wheat [3]; [20]
  Plant response rating, Wheat: 50
rice
  Plant response rating, Rice: 30
Barnyardgrass [4]
  Plant response rating, Barnyardgrass: 0
Pigweed [5]; [19]
  Pigweed plant response rating: 100
Pigweed [5]; [20]
  Plant response rating, Pigweed: 100
Corn [6]; [19]
  Corn plant response rating: 20
Corn [6]; [20]
  Plant response rating, Corn: 30
Giant foxtail [7]; [18]
  Plant response rating, Foxtail, Giant: 100
  Foxtail, Giant plant response rating: 100
Barnyardgrass [8]; [18]
  Plant response rating, Barnyardgrass: 50
  Barnyardgrass plant response rating: 80
Velvetleaf [9]; [19]
  Velvetleaf plant response rating: 90
Velvetleaf [9]; [20]
  Plant response rating, Velvetleaf: 100
Pigweed [10]; 125 g ai/ha
  Pigweed plant response rating (0 to 100 scale): 100
Pigweed [10]; [18]
  Pigweed plant response rating: 100
Heteranthera limosa
  Plant response rating, Ducksalad: 90
Velvetleaf [11]; 125 g ai/ha
  Velvetleaf plant response rating (0 to 100 scale): 70
Velvetleaf [11]; [18]
  Velvetleaf plant response rating: 90
Barnyardgrass [12]; [19]
  Barnyardgrass plant response rating: 50
Barnyardgrass [12]; [20]
  Plant response rating, Barnyardgrass: 90
Giant foxtail [13]; [19]
  Foxtail, Giant plant response rating: 70
Giant foxtail [13]; [20]
  Plant response rating, Foxtail, Giant: 90
sedge, umbrella
  Plant response rating, Sedge, Umbrella: 80
Large (Lg) crabgrass [14]; [19]
  Crabgrass, Large plant response rating: 70
Large (Lg) crabgrass [14]; [20]
  Plant response rating, Crabgrass, Large: 90
Morningglory [15]; [19]
  Morningglory plant response rating: 50
Morningglory [15]; [20]
  Plant response rating, Morningglory: 100
Large (Lg) crabgrass [16]; [18]
  Plant response rating, Crabgrass, Large: 100
  Crabgrass, Large plant response rating: 100
Corn [17]; [18]
  Plant response rating, Corn: 0
  Corn plant response rating: 20

## COc1ccc(Oc2ncc(Cl)cn2)c(-n2cc(Br)cn2)c1 [Compound 42]
Wheat [1]; [19]
  Plant response rating, Wheat: 0
Wheat [1]; [21]
  Wheat plant response rating: 0
Morningglory [2]; [19]
  Plant response rating, Morningglory: 0
Morningglory [2]; [21]
  Morningglory plant response rating: 0
Wheat [3]; [19]
  Plant response rating, Wheat: 0
Wheat [3]; [22]
  Plant response rating, Wheat: 0
rice
  Plant response rating, Rice: 15
Barnyardgrass [4]
  Plant response rating, Barnyardgrass: 0
Pigweed [5]; [19]
  Plant response rating, Pigweed: 0
Pigweed [5]; [22]
  Plant response rating, Pigweed: 30
Corn [6]; [19]
  Plant response rating, Corn: 0
Corn [6]; [22]
  Plant response rating, Corn: 0
Giant foxtail [7]; [18]
  Plant response rating, Foxtail, Giant: 10
Giant foxtail [7]; [21]
  Foxtail, Giant plant response rating: 20
Barnyardgrass [8]; [18]
  Plant response rating, Barnyardgrass: 0
Barnyardgrass [8]; [21]
  Barnyardgrass plant response rating: 10
Velvetleaf [9]; [19]
  Plant response rating, Velvetleaf: 60
Velvetleaf [9]; [22]
  Plant response rating, Velvetleaf: 70
Pigweed [10]; [19]
  Plant response rating, Pigweed: 0
Pigweed [10]; [21]
  Pigweed plant response rating: 20
Heteranthera limosa
  Plant response rating, Ducksalad: 45
Velvetleaf [11]; [19]
  Plant response rating, Velvetleaf: 60
Velvetleaf [11]; [21]
  Velvetleaf plant response rating: 60
Barnyardgrass [12]; [19]
  Plant response rating, Barnyardgrass: 0
Barnyardgrass [12]; [22]
  Plant response rating, Barnyardgrass: 0
Giant foxtail [13]; [19]
  Plant response rating, Foxtail, Giant: 0
Giant foxtail [13]; [22]
  Plant response rating, Foxtail, Giant: 30
sedge, umbrella
  Plant response rating, Sedge, Umbrella: 0
Large (Lg) crabgrass [14]; [19]
  Plant response rating, Crabgrass, Large: 10
Large (Lg) crabgrass [14]; [22]
  Plant response rating, Crabgrass, Large: 50
Morningglory [15]; [19]
  Plant response rating, Morningglory: 20
Morningglory [15]; [22]
  Plant response rating, Morningglory: 40
Large (Lg) crabgrass [16]; [18]
  Plant response rating, Crabgrass, Large: 10
Large (Lg) crabgrass [16]; [21]
  Crabgrass, Large plant response rating: 30
Corn [17]; [18]
  Plant response rating, Corn: 0
Corn [17]; [21]
  Corn plant response rating: 0
